# What was measured:
# murine NOD1 = biological target: T1, murine NOD1 (Mus musculus, UniProt Q8BHB0); assay: NOD1 functional agonist assay, 293mNOD1-SEAP reporter cells; type: cell-based; conditions: 293mNOD1 cells, OD above 3*O.D of negative control
# T1 construct: expressed in transfected cells; host or cells: HEK293
# T1 sequence (Q8BHB0 1-953): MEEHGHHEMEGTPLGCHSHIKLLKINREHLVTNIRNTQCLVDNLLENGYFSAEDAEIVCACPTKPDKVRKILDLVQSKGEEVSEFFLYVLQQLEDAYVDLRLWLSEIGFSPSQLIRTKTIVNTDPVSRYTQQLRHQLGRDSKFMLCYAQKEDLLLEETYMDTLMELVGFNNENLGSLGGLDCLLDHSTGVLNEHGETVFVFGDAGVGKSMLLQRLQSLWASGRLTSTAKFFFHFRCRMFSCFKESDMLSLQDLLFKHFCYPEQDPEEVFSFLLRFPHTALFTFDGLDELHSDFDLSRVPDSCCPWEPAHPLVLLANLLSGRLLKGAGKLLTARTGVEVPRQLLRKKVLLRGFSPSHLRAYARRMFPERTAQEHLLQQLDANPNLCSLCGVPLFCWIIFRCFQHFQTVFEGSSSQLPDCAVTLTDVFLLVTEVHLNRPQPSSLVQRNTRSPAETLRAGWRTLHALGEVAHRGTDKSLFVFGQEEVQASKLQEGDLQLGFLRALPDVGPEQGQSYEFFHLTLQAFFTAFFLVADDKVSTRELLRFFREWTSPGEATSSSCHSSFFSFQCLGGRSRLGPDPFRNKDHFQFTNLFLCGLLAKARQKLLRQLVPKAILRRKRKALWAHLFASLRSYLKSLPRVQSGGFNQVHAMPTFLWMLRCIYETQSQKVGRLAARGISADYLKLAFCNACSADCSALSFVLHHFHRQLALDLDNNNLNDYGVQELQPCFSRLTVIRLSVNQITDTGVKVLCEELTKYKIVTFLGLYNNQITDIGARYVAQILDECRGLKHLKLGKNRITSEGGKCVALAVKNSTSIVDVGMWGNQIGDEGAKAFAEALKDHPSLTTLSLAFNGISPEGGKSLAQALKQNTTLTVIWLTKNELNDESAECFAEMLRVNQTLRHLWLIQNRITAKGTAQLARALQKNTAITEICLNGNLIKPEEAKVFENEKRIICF
# Method in brief: (§1)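 Stably transfected HEK293 cells overexpressing human or murine NOD1 with an NF-κB/AP-1-inducible SEAP reporter; secreted SEAP detected colorimetrically, absorbance read at 620/655 nm. Value is the lowest concentration giving mean OD above 3× the endotoxin-free water negative control; parental 293 SEAP cells lacking NOD1 served as counter-control.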
# human NOD1 = biological target: T2, human NOD1 (Homo sapiens, UniProt Q9Y239); assay: NOD1 functional agonist assay, 293hNOD1-SEAP reporter cells; type: cell-based; conditions: 293hNOD1 cells, OD above 3*O.D of negative control
# T2 construct: expressed in transfected cells; host or cells: HEK293
# T2 sequence (Q9Y239 1-953): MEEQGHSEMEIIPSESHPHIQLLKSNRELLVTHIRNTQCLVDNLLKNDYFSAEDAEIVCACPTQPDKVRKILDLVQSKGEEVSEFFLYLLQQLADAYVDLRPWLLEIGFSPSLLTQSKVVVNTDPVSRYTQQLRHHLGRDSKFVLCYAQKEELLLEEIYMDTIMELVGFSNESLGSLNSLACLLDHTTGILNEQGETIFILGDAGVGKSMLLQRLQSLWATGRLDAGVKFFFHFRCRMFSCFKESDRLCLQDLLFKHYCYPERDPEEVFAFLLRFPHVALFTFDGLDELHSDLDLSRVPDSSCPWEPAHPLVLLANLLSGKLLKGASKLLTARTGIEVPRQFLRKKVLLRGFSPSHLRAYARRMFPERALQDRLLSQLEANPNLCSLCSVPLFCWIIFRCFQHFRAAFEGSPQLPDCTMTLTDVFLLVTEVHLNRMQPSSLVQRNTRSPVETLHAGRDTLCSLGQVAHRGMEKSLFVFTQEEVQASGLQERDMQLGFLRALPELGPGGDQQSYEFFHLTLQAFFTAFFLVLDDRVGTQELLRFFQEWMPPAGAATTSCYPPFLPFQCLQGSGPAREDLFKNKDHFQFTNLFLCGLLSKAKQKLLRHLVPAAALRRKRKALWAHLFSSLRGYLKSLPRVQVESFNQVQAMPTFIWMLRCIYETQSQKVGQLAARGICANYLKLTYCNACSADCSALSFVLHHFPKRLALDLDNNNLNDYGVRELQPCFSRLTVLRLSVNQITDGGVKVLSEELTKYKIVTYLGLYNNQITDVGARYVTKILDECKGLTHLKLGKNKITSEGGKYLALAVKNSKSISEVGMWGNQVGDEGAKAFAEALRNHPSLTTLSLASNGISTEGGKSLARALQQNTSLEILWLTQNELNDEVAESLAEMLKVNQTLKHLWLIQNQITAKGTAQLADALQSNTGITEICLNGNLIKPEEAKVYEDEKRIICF
# Method in brief: as §1
# [1] = test system: LPM in the peritoneal cavity; assay: Numbers of LPM in the peritoneal cavity after i.p. injection; type: in vivo; conditions: injected i.p. into mice; FIG. 1B
# PEC = assay: IL-10 production by PEC in vitro; type: cell-based; conditions: 24 h stimulation, FIG. 1A
# EAE in C57BL/6 mice = assay: Experimental Autoimmune Encephalomyelitis (EAE) model; type: in vivo; conditions: treated mice; FIG. 1C
# Description: EAE is induced in C57BL/6 mice by immunization with an emulsion of MOG35-55 or MOG1-125 in complete Freund's adjuvant (CFA), followed by administration of pertussis toxin (PT) in PBS, first on the day of immunization and then again the following day.
# DSS-induced colitis = assay: Dextran Sulfate Sodium (DSS)-induced colitis mouse model; type: in vivo, mice; conditions: 2% DSS in drinking water 7 days; 25 μg i.p. on days 0, 1, 2, 4 and 6; FIG. 3
# Protocol: As provides in FIG. 3, mice were given water or 2% DSS in their drinking water for 7 days and were treated i.p. with either PBS, vehicle or 25 μg compound of Example 29 (Ex.29) on days 0, 1, 2, 4 and 6 of the experiment. (3A) Body weights were recorded daily. (3B) Mice were sacrificed on day 7 and colon lengths were measured (mean±SE; n=6). (3C) Total mRNA were extracted from the colons on day 7 and the relative expression (RE) of the M2 macrophage markers Relma, and the M1 macrophage markers Ptgs2 (Cox2) and Nos2 were quantified by qPCR (mean±SE; n=6). *, P<0.05; and **, P<0.01 versus DSS+vehicle treated mice.
# [2] = test system: DSS-induced inflammation in the colon; assay: DSS-induced inflammation in the colon model; type: in vivo, mice; conditions: 2% DSS in drinking water 7 days; 25 μg i.p. on days 0, 1, 2, 4 and 6; FIG. 4
# Protocol: Mice were given water or 2% DSS in their drinking water for 7 days and were treated i.p. with either PBS, vehicle or 25 μg compound of Example 29 (Ex.29) on days 0, 1, 2, 4 and 6 of the experiment. Mice were sacrificed on day 7 and colon sections were prepared and stained with H&E.
# Arrows indicate areas of severe inflammatory pathology.
compound,measurement,setting,value
"CCCCCCCCCCCCCC(=O)N[C@@H](C)C(=O)N[C@H](CCC(=O)N[C@H](CSC[C@H](N)C(=O)O)C(=O)NCC(=O)O)C(=O)O [Example 29, N^5-((S)-3-(((R)-2-amino-2-carboxyethyl)thio)-1-((carboxymethyl)amino)-1-oxopropan-2-yl)-N^2-(tetradecanoyl-L-alanyl)-D-glutamine]",mNod1: concentration where a significant mean optical density (OD) can be observed,murine NOD1,0.001 µg/mL
same,hNod1: concentration where a significant mean optical density (OD) can be observed,human NOD1,0.0001 µg/mL
same,numbers of LPM in the peritoneal cavity,[1],significantly increased
same,production of IL-10 by PEC,PEC,induced the production of significant concentrations of IL-10
same,EAE-associated weight loss,EAE in C57BL/6 mice,prevented associated weight loss
same,clinical course of EAE,EAE in C57BL/6 mice,significantly attenuated
same,protection against DSS-induced colitis,DSS-induced colitis,protects mice against DSS-induced colitis
same,protection against DSS-induced inflammation in the colon,[2],protects mice against DSS-induced inflammation in the colon
